Results on two molecules are retold here after patent publication US8143889B2, “Simultaneous acquisitions of spin- and stimulated-echo planar imaging” (University of Utah Research Foundation, priority 2009, dated 2012).

Holding throughout (assay type): physicochemical
Series [1] can be described thus: T1 and turbo-FLASH signal intensity on phantom with different concentrations of Gd-BOPTA. On the procedure:
The results are plotted in FIG. 12. […] The dosage 0.1˜0.2 mM [PBCA]/kg is the routine dosage for DCE-MRI and local concentrations may easily exceed 0.2˜0.4 mM/kg in organs with high-blood supply or at the periphery of a tumor. The signal behavior of the gradient-echo MRI varies widely with the selection of TR, TE, and flipangle, and for T1. Although a set of these imaging parameters may be linear for a small range of PBCA concentrations and specific T1, it will not be linear for other T1 values. […] Thus, direct conversion of SI to the concentration is subject to large error, which will be propagated into the subsequent kinetic calculation. In contrast, the realtime T1 mapping provided by embodiments of the invention described above is linearly related to the PBCA concentration. Thus, the realtime T1 mapping provides accurate realtime estimation of the PBCA concentration resulting in improvement of the accuracy of drug-delivery or tumor evaluation.

The nature of series [2]: T1 of MnCl2/water phantom by saturation-recovery spin-echo. The following applies: 3 Tesla. On the procedure: (§1) MRI studies were performed on a Siemens Trio 3 Tesla MRI system (Siemens Medical Solutions, Erlangen, Germany) with Avanto gradients (45 mT/m strength and 150 T/m/s slew rate). The pulse sequence was developed based on a singleshot spin-echo EPI sequence, using the IDEA pulse sequence development environment. Realtime calculation of T1 mapping was implemented into a custom-made ICE program (Image Construction Environment). The image construction program produced two magnitude images, two phase images, and a T1 map for each slice.
A phantom was constructed with four 20 cc plastic bottles filled with 0.05, 0.1, 0.2, and 0.4 mM MnCl2/water solutions, respectively, and immersed in jello in a rectangular acrylic container with dimensions 8×8×13 cm^3. The T1 of each concentration was 1.3, 0.9, 0.55, 0.35 sec for 0.05, 0.1, 0.2, 0.4 mM, respectively. T1 of the phantom was measured using saturation-recovery spin-echo.

A short description of series [3]: T1 mapping of MnCl2/water phantom by inversion-recovery spin-echo (IR-SE) imaging and 2D ss-SGSTEPI. The settings on record: 3 Tesla. Here is the method: as §1
A phantom was constructed with 4 plastic bottles filled with MnCl2/water solutions with concentrations of 0.05, 0.1, 0.2, and 0.4 mM, which were surrounded by jello. T1 mapping experiment was conducted using inversion-recovery spin-echo (IR-SE) imaging and 2D ss-SGSTEPI. T1 of each concentration of MnCl2/water solution were measured as 1.5, 0.89, 0.55, 0.35 sec for […], respectively.

`CNC[C@H](O)[C@@H](O)[C@H](O)[C@H](O)CO.CNC[C@H](O)[C@@H](O)[C@H](O)[C@H](O)CO.O=C([O-])CN(CCN(CC(=O)[O-])CC(=O)O)CCN(CC(=O)O)C(COCc1ccccc1)C(=O)[O-].[Gd+3]` (stereo not shown) [Gd-BOPTA, Gadobenate dimeglumine]: the “T1 relaxation rate (1/T1) of the water proton vs. concentration” value in series [1] (FIG. 12(b)) was “very linear with the concentration”. For the same molecule, in series [1] (TR/TE=7.2/2.7 ms, flipangle 30°, FIG. 12(a)), the “signal intensities of turboFLASH and spin-EPI vs. concentration” value is on record as “non-linear even at low concentration”.

Take `[Cl][Mn][Cl]` [MnCl2]: the T1 in series [2] (0.05 mM MnCl2/water solution) was 1.3 s; in series [2] (0.1 mM MnCl2/water solution), 0.9 s; in series [2] (0.2 mM MnCl2/water solution) it was 0.55 s; in series [2] (0.4 mM MnCl2/water solution), 0.35 s; in series [3] (0.05 mM MnCl2/water solution), 1.5 s; in series [3] (0.1 mM MnCl2/water solution), 0.89 s. In addition, the figures for the T1 in series [3] (0.2 mM MnCl2/water solution) and in series [3] (0.5 mM MnCl2/water solution) were 0.55 s and 0.35 s, respectively.
